Test results as given in patent publication US20220233708A1, “ANTIBODY-DRUG CONJUGATE, INTERMEDIATE THEREOF, PREPARATION METHOD THEREFOR AND APPLICATION THEREOF” (priority 2019, published 2022).
Like-named read-outs stand apart in the source and are kept apart here. Starred links: 1 amine or outer side, 2 acyl side, 3 side chain; linkers in the order of their positions; H or OH if unused. Non-standard residues stand in square brackets, D forms with d. Residues, ends and D or L forms follow the SMILES beside them. *: point of attachment. Exatecan = CC[C@@]1(O)C(=O)OCc2c1cc1n(c2=O)Cc2c-1nc1cc(F)c(C)c3c1c2[C@@H](N*)CC3; Hexanoyl(6-maleimido) = O=C1C=CC(=O)N1CCCCCC(=O)*; NHCH2OCH2CO = O=C(COCN[*:1])[*:2]

Tests used:
other antibodies = assay: Coupling of linker-drug conjugates with other / different antibodies; format: physicochemical; conditions: coupled with other / different antibodies
anti-B7-H3 antibody P2E5 = assay: Coupling of linker-drug conjugates with P2E5; format: physicochemical; conditions: coupling with P2E5, highest DAR (excessive coupling)
Method: (§1) The anti-B7-H3 antibody P2E5, anti-Claudin18.2 antibody IMAB362, and anti-HER2 antibody Trastuzumab (concentration was 15 mg/mL) were replaced into 50 mM PB/1.0 mM EDTA buffer (pH 7.0) by a G25 desalting column, respectively. 12 equivalents of TECP was added and the mixture was stirred at 37° C. for 2 hours to fully open the disulfide bonds between the antibody chains. Then phosphoric acid was used to adjust the pH of the reduced antibody solution to 6.0, and the temperature of the water bath was lowered to 25° C. for coupling reaction. […] After the reaction was completed, the sample was filtered with a 0.22 μm membrane. Uncoupled small molecules were purified and removed by a tangential flow ultrafiltration system. The buffer was 50 mM PB/1.0 mM EDTA solution (pH 6.0). After purification, sucrose (final concentration was 6%) was added, and the mixture was stored in a refrigerator at −20° C. The UV method was used to measure the absorbance values at 280 nm and 370 nm respectively, and the DAR value was calculated.

[1] = tested on: anti-HER2 antibody Trastuzumab; assay: Coupling of linker-drug conjugates with Trastuzumab; format: physicochemical; conditions: highest DAR (excessive coupling)
Method: as §1

cathepsin B = cathepsin B (Homo sapiens, UniProt P07858); assay: In vitro enzyme cleavage experiment of linker-drug conjugates; format: in vitro ADME; conditions: pH 5.0 to pH 7.0
Method: Linker-drug conjugates (LE14 and GGFG-Dxd) and cathepsin B were incubated in three different pH (5.0, 6.0, 7.0) buffers, and samples were taken at different time points into the high performance liquid chromatography-mass spectrometer. The release percentage of the drug was determined by external standard method (with Dxd as the external standard).

[2] = tested on: anti-Claudin18.2 antibody IMAB362; assay: Coupling of linker-drug conjugates with IMAB362; format: physicochemical; conditions: coupling with IMAB362, highest DAR (excessive coupling)
Method: as §1

NCI-N87 cell line = assay: Killing activity on NCI-N87 before and after enzyme cleavage by cathepsin B system; format: cell-based, human; conditions: NCI-N87, 144 hours
Source text: The NCI-N87 cell line was selected as the experimental cell line.

| SMILES | Precipitation (in words) (other antibodies) | Ratio of aggregates (in words) (other antibodies) | Ratio of aggregates (anti-B7-H3 antibody P2E5) | Whether precipitation (anti-B7-H3 antibody P2E5) | Ratio of aggregates [1] | Whether precipitation [1] | Enzyme cleavage speed (in words) (cathepsin B) | Ratio of aggregates [2] | Whether precipitation [2] | IC50 (NCI-N87 cell line; after cathepsin B system pH 5.0, 37° C., 4 hours, read-out: IC50 (Based on SN-38 equivalent), After enzyme cleavage) | IC50 (NCI-N87 cell line; before cathepsin B cleavage, read-out: IC50 (Based on SN-38 equivalent), Before enzyme cleavage) |
| --- | --- | --- | --- | --- | --- | --- | --- | --- | --- | --- | --- |
| CC[C@@]1(O)C(=O)OCc2c1cc1n(c2=O)Cc2c-1nc1cc(F)c(C)c3c1c2[C@@H](NC(=O)COCNC(=O)CNC(=O)[C@H](Cc1ccccc1)NC(=O)CNC(=O)CNC(=O)CCCCCN1C(=O)C=CC1=O)CC3 [GGFG-Dxd, reference compound] ({Hexanoyl(6-maleimido)}-GGFG[NHCH2OCH2CO]-Exatecan) | precipitation would be produced | high | 20% | produced precipitation | 0.1% | did not produce precipitation and No | slower enzyme cleavage speed | 35% | produced precipitation |  |  |
| CCc1c2c(nc3ccc(O)cc13)-c1cc3c(c(=O)n1C2)COC(=O)[C@]3(O)CC [SN38, 7-ethyl-10-hydroxycamptothecin] |  |  |  |  |  |  |  |  |  | 6.85 nM | 6.47 nM |
